The structures appear in SMILES notation. Like-named read-outs stand apart in the source and are kept apart here.

Common to all, as to format: in vivo
In assay [1] the test system is Beet Armyworm (Spodoptera exigua, LAPHEG). As to the kind of experiment: Bioassay on Beet Armyworm (BAW), 128-well diet tray assay. In outline: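 Diet in each of eight wells received 50 μg/cm^2 of test molecule (90:10 acetone-water, dried), then one to five second-instar larvae were added. Mortality (%) was scored after five to seven days at 25° C. under 14:10 light-dark and averaged across the wells.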

The subject of assay [2] is Cabbage Looper (Trichoplusia ni, TRIPNI). As to the kind of experiment: Bioassay on Cabbage Looper (CL), 128-well diet tray assay. Conditions: Trichoplusia ni. A digest of the protocol:
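Mortality of second instar larvae exposed to diet coated with 50 μg/cm^2 compound (acetone-water 90:10 vehicle, dried); 25° C., 5–7 days.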

Assay [3] has as its system Yellow Fever Mosquito (Aedes aegypti, AEDSAE). The assay can be described thus: Bioassay on Yellow Fever Mosquito (YFM), 96-well plate larval assay. Conditions: for YFM (Biological Results, rating): Species YFM (Yellow Fever Mosquito); for YFM rating: Yellow Fever Mosquito, 96-well plate larval assay. On the procedure: Certain molecules disclosed in this document were tested against YFM using procedures described in the following paragraph. In the reporting of the results, the “GPA & YFM Rating Table” was used (See Table Section).
Master plates containing 400 μg of a molecule dissolved in 100 μL of dimethyl sulfoxide (DMSO) (equivalent to a 4000 ppm solution) are used. A master plate of assembled molecules contains 15 μL per well. To this plate, 135 μL of a 90:10 water/acetone mixture is added to each well. A robot is programmed to dispense 15 μL aspirations from the master plate into an empty 96-well shallow plate (“daughter” plate). There are 6 reps (“daughter” plates) created per master. The created “daughter” plates are then immediately infested with YFM larvae.
The day before plates are to be treated, mosquito eggs are placed in Millipore water containing liver powder to begin hatching (4 g. into 400 mL). After the “daughter” plates are created using the robot, they are infested with 220 μL of the liver powder/larval mosquito mixture (about 1 day-old larvae). After plates are infested with mosquito larvae, a non-evaporative lid is used to cover the plate to reduce drying. Plates are held at room temperature for 3 days prior to grading. After 3 days, each well is observed and scored based on mortality. The results are indicated in the table entitled “Table ABC: Biological Results” (See Table Section).

Setting [4] is: Species BAW (Beet Armyworm), read-out: BAW (Biological Results, rating).
The mark [5] stands for this setting: Species CL (Cabbage Looper), read-out: CL (Biological Results, rating).
Setting [6] is: Beet Armyworm, 128-well diet tray assay, read-out: BAW rating.
[7] abbreviates: Cabbage Looper, 128-well diet tray assay, read-out: CL rating.

Consider `CN(C(=O)c1cc(NC(=O)[C@H]2[C@H](c3cc(Cl)c(Cl)c(Cl)c3)C2(Cl)Cl)ccc1F)c1ccccc1` (relative stereo) [F68, trans-5-(2,2-Dichloro-3-(3,4,5-trichlorophenyl)cyclopropane-1-carboxamido)-2-fluoro-N-methyl-N-phenylbenzamide], for which the pest or weed control at 50 µg/cm2 in assay [1] (setting [4]) and in assay [2] (setting [5]) was 50 to 100% throughout. Besides, the “YFM (Biological Results, rating)” value in assay [3] is “B (More than 0-Less than 80)”.
As to `Nc1ccc(F)c(NC(=O)c2cc(NC(=O)[C@H]3[C@H](c4ccc(F)c(Cl)c4)C3(Cl)Cl)ccc2Cl)c1` [F430, N-(5-Amino-2-fluorophenyl)-2-chloro-5-((1R,3R)-2,2-dichloro-3-(3-chloro-4-fluorophenyl)cyclopropane-1-carboxamido)benzamide], the pest or weed control at 50 µg/cm2 in assay [1] (setting [6]) and in assay [2] (setting [7]) was 50 to 100% in each case. Moreover, the YFM rating entry in assay [3] is reported as “A (80-100)”.
For `CNc1ccc(NC(=O)c2cc(NC(=O)[C@H]3[C@H](c4cc(Cl)cc(Cl)c4)C3(Cl)Cl)ccc2Cl)c(C#N)c1` (relative stereo) [F237, trans-2-chloro-N-(2-cyano-4-(methylamino)phenyl)-5-(2,2-dichloro-3-(3,5-dichlorophenyl)cyclopropane-1-carboxamido)benzamide], the pest or weed control at 50 µg/cm2 in assay [1] (setting [4]) and in assay [2] (setting [5]) was 50 to 100% each time. The “YFM (Biological Results, rating)” value in assay [3] is “A (80-100)”.
For the molecule `CN(C(=O)c1cc(NC(=O)[C@H]2[C@H](c3cc(C(F)(F)F)cc(C(F)(F)F)c3)C2(Cl)Cl)ccc1Cl)c1ccc(F)cc1` (relative stereo) [F85, trans-5-(3-(3,5-Bis(trifluoromethyl)phenyl)-2,2-dichlorocyclopropane-1-carboxamido)-2-chloro-N-(4-fluorophenyl)-N-methylbenzamide], the pest or weed control at 50 µg/cm2 in assay [1] (setting [4]) and in assay [2] (setting [5]) was 50 to 100% each time. Moreover, the “YFM (Biological Results, rating)” value in assay [3] is “A (80-100)”.
In the case of `O=C(Nc1ncc(F)cc1F)c1cc(NC(=O)[C@H]2[C@H](c3ccc(C(F)F)c(F)c3)C2(Cl)Cl)ccc1Cl` (relative stereo) [F589, 2-chloro-5-(trans-2,2-dichloro-3-(4-(difluoromethyl)-3-fluorophenyl)cyclopropane-1-carboxamido)-N-(3,5-difluoropyridin-2-yl)benzamide], the pest or weed control at 50 µg/cm2 in assay [1] (setting [6]) and in assay [2] (setting [7]) was 50 to 100% throughout. Moreover, in assay [3], the YFM rating entry was “A (80-100)”.
On to `Nc1cc(F)cc(NC(=O)c2cc(NC(=O)[C@H]3[C@H](c4ccc(Cl)c(Cl)c4)C3(Cl)Cl)ccc2Cl)c1` [F431, N-(3-Amino-5-fluorophenyl)-2-chloro-5-((1R,3R)-2,2-dichloro-3-(3,4-dichlorophenyl)cyclopropane-1-carboxamido)benzamide], for which the pest or weed control at 50 µg/cm2 in assay [1] (setting [6]) and in assay [2] (setting [7]) was 50 to 100% throughout. For the same molecule, the YFM rating entry in assay [3] is given as “A (80-100)”.
Consider `O=C(Nc1ccc2c(c1)CCCN2)c1cc(NC(=O)[C@H]2[C@H](c3cc(Cl)cc(Cl)c3)C2(Cl)Cl)ccc1Cl` (relative stereo) [F492, 2-Chloro-5-(trans)-(2,2-dichloro-3-(3,5-dichlorophenyl)cyclopropane-1-carboxamido)-N-(1,2,3,4-tetrahydroquinolin-6-yl)benzamide], for which the pest or weed control at 50 µg/cm2 in assay [1] (setting [6]) and in assay [2] (setting [7]) was 50 to 100% in each case. For the same molecule, the YFM rating entry in assay [3] was “A (80-100)”.
As to `N#Cc1cc(F)ccc1NC(=O)c1cccc(NC(=O)[C@H]2[C@H](c3cc(Cl)c(Cl)c(Cl)c3)C2(Cl)Cl)c1` (relative stereo) [F267, trans-N-(2-cyano-4-fluorophenyl)-3-(2,2-dichloro-3-(3,4,5-trichlorophenyl)cyclopropane-1-carboxamido)benzamide], the pest or weed control at 50 µg/cm2 in assay [1] (setting [4]) and in assay [2] (setting [5]) was 50 to 100% throughout. In addition, the “YFM (Biological Results, rating)” value in assay [3] is “B (More than 0-Less than 80)”.
With `O=C(Nc1ccc2cc[nH]c2c1)c1cc(NC(=O)C2C(c3cc(Cl)cc(Cl)c3)C2(Cl)Cl)ccc1Cl` (stereo not drawn) [PF126, 2-Chloro-5-(trans)-2,2-dichloro-3-(3,5-dichlorophenyl)cyclopropane-1-carboxamido)-N-(1H-indol-6-yl)benzamide], the pest or weed control at 50 µg/cm2 in assay [1] (setting [6]) and in assay [2] (setting [7]) was 50 to 100% throughout. In addition, in assay [3], the YFM rating entry is reported as “A (80-100)”.
Consider `O=C(Nc1cnc(F)c(Br)c1)c1cc(NC(=O)[C@H]2[C@H](c3cc(Cl)cc(Cl)c3)C2(Cl)Cl)ccc1Cl` (relative stereo) [F395, N-(5-Bromo-6-fluoropyridin-3-yl)-2-chloro-5-(trans-2,2-dichloro-3-(3,5-dichlorophenyl)cyclopropane-1-carboxamido)benzamide], for which the pest or weed control at 50 µg/cm2 in assay [1] (setting [6]) and in assay [2] (setting [7]) was 50 to 100% each time. For the same molecule, in assay [3], the YFM rating entry is recorded as “A (80-100)”.
With `O=C(Nc1ncc(F)cn1)c1cc(NC(=O)[C@H]2[C@H](c3cc(Cl)cc(Cl)c3)C2(Cl)Cl)ccc1Cl` (relative stereo) [F222, trans-2-Chloro-5-(2,2-dichloro-3-(3,5-dichlorophenyl)cyclopropane-1-carboxamido)-N-(5-fluoropyrimidin-2-yl)benzamide], the pest or weed control at 50 µg/cm2 in assay [1] (setting [4]) and in assay [2] (setting [5]) was 50 to 100% each time. Besides, in assay [3], the “YFM (Biological Results, rating)” value is listed as “A (80-100)”.
For the molecule `O=C(Nc1ccc(F)cc1F)c1cc(NC(=O)[C@H]2[C@H](c3ccc(C(F)F)cc3)C2(Cl)Cl)ccc1Cl` (relative stereo) [F565, 2-Chloro-5-(trans-2,2-dichloro-3-(4-(difluoromethyl)phenyl)cyclopropane-1-carboxamido)-N-(2,4-difluorophenyl)benzamide], the pest or weed control at 50 µg/cm2 in assay [1] (setting [6]) and in assay [2] (setting [7]) was 50 to 100% each time. The YFM rating result in assay [3] is on record as “A (80-100)”.
For `CC(C)(C)OC(=O)N(C(=O)OC(C)(C)C)c1c(F)ccc(NC(=O)c2cc(NC(=O)[C@H]3[C@H](c4cccc(C(F)(F)F)c4)C3(Cl)Cl)ccc2Cl)c1F` (relative stereo) [F516, trans-tert-Butyl-N-((tert-butoxy)carbonyl)-N-(3-(2-chloro-5-(2,2-dichloro-3-(3-(trifluoromethyl)phenyl)cyclopropane-1-carboxamido)benzamido)-2,6-difluorophenyl)carbamate], the pest or weed control at 50 µg/cm2 in assay [1] (setting [6]) and in assay [2] (setting [7]) was 50 to 100% throughout. For the same molecule, in assay [3], the YFM rating entry is on record as “A (80-100)”.
Take `Cc1c(F)ccc(NC(=O)c2cc(NC(=O)[C@H]3[C@H](c4cc(Cl)cc(Cl)c4)C3(Cl)Cl)ccc2Cl)c1C` (relative stereo) [PF54, trans-2-Chloro-5-(2,2-dichloro-3-(3,5-dichlorophenyl)cyclopropane-1-carboxamido)-N-(4-fluoro-2,3-dimethylphenyl)benzamide]: the pest or weed control at 50 µg/cm2 in assay [1] (setting [6]) and in assay [2] (setting [7]) was 50 to 100% in each case. Besides, the YFM rating entry in assay [3] is “A (80-100)”.
For `O=C(Nc1ccc(OCC(F)(F)F)cc1)c1cc(NC(=O)[C@H]2[C@H](c3cc(Cl)cc(Cl)c3)C2(Cl)Cl)ccc1Cl` (relative stereo) [PF62, trans-2-Chloro-5-(2,2-dichloro-3-(3,5-dichlorophenyl)cyclopropane-1-carboxamido)-N-(4-(2,2,2-trifluoroethoxy)phenyl)benzamide], the pest or weed control at 50 µg/cm2 in assay [1] (setting [6]) and in assay [2] (setting [7]) was 50 to 100% throughout. For the same molecule, the YFM rating entry in assay [3] is “A (80-100)”.
Regarding `CN(C(=O)c1cc(NC(=O)[C@H]2[C@H](c3cc(Cl)cc(Cl)c3)C2(Cl)Cl)ccc1Cl)c1ccc(F)cc1` [F169, 2-Chloro-5-((1R,3R)-2,2-dichloro-3-(3,5-dichlorophenyl)cyclopropane-1-carboxamido)-N-(4-fluorophenyl)-N-methylbenzamide], the pest or weed control at 50 µg/cm2 in assay [1] (setting [4]) and in assay [2] (setting [5]) was 50 to 100% in each case. In addition, the “YFM (Biological Results, rating)” value in assay [3] was “A (80-100)”.
As for `O=C(Nc1cc(F)c2cc[nH]c2c1)c1cc(NC(=O)C2C(c3cc(Cl)cc(Cl)c3)C2(Cl)Cl)ccc1Cl` (stereo not drawn) [F173, 2-Chloro-5-(trans)-2,2-dichloro-3-(3,5-dichlorophenyl)cyclopropane-1-carboxamido)-N-(4-fluoro-1H-indol-6-yl)benzamide], the pest or weed control at 50 µg/cm2 in assay [1] (setting [4]) and in assay [2] (setting [5]) was 50 to 100% in each case. For the same molecule, the “YFM (Biological Results, rating)” value in assay [3] is recorded as “B (More than 0-Less than 80)”.

For the origin of these results see patent publication US10219516B2, “Molecules having pesticidal utility, and intermediates, compositions, and processes, related thereto” (priority 2015, dated 2019).
